In patent US20260152498A1, “4,5,6,7-TETRAHYDRO-1H-PYRAZOLO[4,3-c]PYRIDINE COMPOUNDS AND DERIVATIVES AS USP1 INHIBITORS” (EXELIXIS, INC., priority 2022, published 2026):

What was measured:
[1] = target: T1, USP1-UAF1 complex (Homo sapiens, UniProt O94782); details: 1.2 µM
Experimental: (§1) Biochemical Assay: The compounds were evaluated for their potential to inhibit USP1-UAF1 complex (Boston Biochem, Catalog: E568-050) using a fluorescence-based assay. The final concentrations of USP1-UAF1 complex protein and substrate Ubiquitin-Rhodamine-110 (R&D systems, Catalog U-555-050) used in the assay were 0.45 and 150 nM respectively. 50 mM HEPES pH. 7.5, 100 mM NaCl, 0.5 mM EDTA, 1 mM TCEP, 10% BSA, 0.01% Tween 20 buffer was used in the assay. The total assay volume was 20 μL. […] The final DMSO concentration in the assay was 1%. The compounds were pre-incubated with USP1-UAF1 complex at 25° C. for 15 min. After preincubation, required concentration of substrate was added and incubated at 25° C. for 60 min. Fluorescence at Excitation: 485 nm, Emission: 535 nm was measured in Victor-5 from Perkin Elmer.
(§2) To determine IC50 values, dose response curves were generated by plotting percentage inhibition as a function of inhibitor concentration and the data was fitted to sigmoidal non-linear regression equation (variable slope) using Graph Pad prism software V8.
(§3) The compounds were screened by the above-mentioned assay procedure.

[2] = target: T1, USP1-UAF1 complex; experiment: biochemical
Experimental: as §1, §2, §3

T1 sequence (O94782 whole entry): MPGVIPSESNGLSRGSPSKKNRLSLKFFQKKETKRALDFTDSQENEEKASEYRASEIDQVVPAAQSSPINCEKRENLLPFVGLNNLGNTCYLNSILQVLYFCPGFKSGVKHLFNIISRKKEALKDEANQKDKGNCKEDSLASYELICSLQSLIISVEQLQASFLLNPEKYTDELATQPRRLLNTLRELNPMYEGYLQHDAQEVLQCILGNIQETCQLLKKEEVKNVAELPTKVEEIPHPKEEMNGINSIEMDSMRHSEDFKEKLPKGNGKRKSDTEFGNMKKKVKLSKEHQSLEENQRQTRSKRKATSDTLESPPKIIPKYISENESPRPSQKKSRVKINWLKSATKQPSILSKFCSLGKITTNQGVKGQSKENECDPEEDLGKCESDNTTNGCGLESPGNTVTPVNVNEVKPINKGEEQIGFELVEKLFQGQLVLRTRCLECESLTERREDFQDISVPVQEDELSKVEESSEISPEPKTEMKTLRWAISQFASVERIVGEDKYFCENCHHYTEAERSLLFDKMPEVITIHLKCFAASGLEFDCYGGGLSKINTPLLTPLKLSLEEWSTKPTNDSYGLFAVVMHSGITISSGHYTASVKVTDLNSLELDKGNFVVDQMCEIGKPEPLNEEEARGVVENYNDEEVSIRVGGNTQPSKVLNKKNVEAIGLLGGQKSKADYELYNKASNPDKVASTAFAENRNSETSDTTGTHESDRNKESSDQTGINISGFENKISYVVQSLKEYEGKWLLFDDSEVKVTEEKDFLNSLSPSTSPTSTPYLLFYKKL
T1 sequence (Q8TAF3 whole entry partner): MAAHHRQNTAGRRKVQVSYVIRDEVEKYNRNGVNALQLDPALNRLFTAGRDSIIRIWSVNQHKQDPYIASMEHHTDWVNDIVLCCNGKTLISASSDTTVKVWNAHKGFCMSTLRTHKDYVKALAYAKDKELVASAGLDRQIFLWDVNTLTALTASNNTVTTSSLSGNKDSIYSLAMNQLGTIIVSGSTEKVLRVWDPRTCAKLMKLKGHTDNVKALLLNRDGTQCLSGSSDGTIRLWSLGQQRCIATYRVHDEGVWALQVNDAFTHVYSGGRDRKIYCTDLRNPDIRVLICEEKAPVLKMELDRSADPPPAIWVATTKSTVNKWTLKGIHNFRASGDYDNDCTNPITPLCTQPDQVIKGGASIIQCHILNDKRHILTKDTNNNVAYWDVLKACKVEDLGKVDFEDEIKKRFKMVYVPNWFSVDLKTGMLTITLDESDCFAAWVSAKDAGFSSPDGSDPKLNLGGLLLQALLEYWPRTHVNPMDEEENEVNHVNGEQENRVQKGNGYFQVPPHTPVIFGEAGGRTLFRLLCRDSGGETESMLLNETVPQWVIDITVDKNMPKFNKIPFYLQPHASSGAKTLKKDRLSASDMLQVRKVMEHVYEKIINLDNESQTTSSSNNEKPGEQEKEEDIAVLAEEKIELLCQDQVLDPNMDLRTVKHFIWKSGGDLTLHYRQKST

Row | SMILES | inhibition [1] [%] | IC50 [2] [nM]
1 | COc1ncnc(C2CC2)c1-c1nn(C)c2c1CN(c1ccc(-c3nc(C(F)(F)F)cn3C)cn1)CC2 [Compound 13, 3-(4-cyclopropyl-6-methoxypyrimidin-5-yl)-1-methyl-5-(5-(1-methyl-4-(trifluoromethyl)-1H-imidazol-2-yl)pyridin-2-yl)-4,5,6,7-tetrahydro-1H-pyrazolo[4,3-c]pyridine] | 98 | < 50
2 | COc1ncnc(C2CC2)c1-c1nn(C(C)C)c2c1CN(c1ccc(-c3nc(C(F)(F)F)cn3C)nc1)CC2 [Compound 28, 3-(4-cyclopropyl-6-methoxypyrimidin-5-yl)-1-isopropyl-5-(6-(1-methyl-4-(trifluoromethyl)-1H-imidazol-2-yl)pyridin-3-yl)-4,5,6,7-tetrahydro-1H-pyrazolo[4,3-c]pyridine] | 90 | > 100
3 | Cc1cnn(C(C)C)c1-c1nn(C)c2c1CN(c1ccc(-c3nc(C(F)(F)F)cn3C)nc1)CC2 [Compound 62, 3-(1-isopropyl-4-methyl-1H-pyrazol-5-yl)-1-methyl-5-(6-(1-methyl-4-(trifluoromethyl)-1H-imidazol-2-yl)pyridin-3-yl)-4,5,6,7-tetrahydro-1H-pyrazolo[4,3-c]pyridine] | 95 | 50 to 100
4 | CC(C)c1ncccc1-c1nn(C)c2c1CN(c1ccc(-c3nc(C(F)(F)F)cn3C)cc1)CC2 [Compound 3, 3-(2-isopropylpyridin-3-yl)-1-methyl-5-(4-(1-methyl-4-(trifluoromethyl)-1H-imidazol-2-yl)phenyl)-4,5,6,7-tetrahydro-1H-pyrazolo[4,3-c]pyridine] | 99 | < 50
5 | COc1ncnc(C2CC2)c1-c1nn(Cc2ccccc2)c2c1CN(c1ccc(-c3nc(C(F)(F)F)cn3C)cn1)CC2 [Compound 37, 1-benzyl-3-(4-cyclopropyl-6-methoxypyrimidin-5-yl)-5-(5-(1-methyl-4-(trifluoromethyl)-1H-imidazol-2-yl)pyridin-2-yl)-4,5,6,7-tetrahydro-1H-pyrazolo[4,3-c]pyridine] | 98 | 50 to 100
6 | CCn1cc(C(F)(F)F)nc1-c1ccc(N2CCc3c(c(-c4c(OC)ncnc4C4CC4)nn3C)C2)cc1 [Compound 5, 3-(4-cyclopropyl-6-methoxypyrimidin-5-yl)-5-(4-(1-ethyl-4-(trifluoromethyl)-1H-imidazol-2-yl)phenyl)-1-methyl-4,5,6,7-tetrahydro-1H-pyrazolo[4,3-c]pyridine] | 100 | < 50
7 | COc1ncnc(C2CC2)c1-c1nn(C)c2c1CN(c1ccc(-c3nc(C(F)(F)F)cn3C(C)C)cc1)CC2 [Compound 6, 3-(4-cyclopropyl-6-methoxypyrimidin-5-yl)-5-(4-(1-isopropyl-4-(trifluoromethyl)-1H-imidazol-2-yl)phenyl)-1-methyl-4,5,6,7-tetrahydro-1H-pyrazolo[4,3-c]pyridine] | 100 | < 50
8 | COc1ncnc(C2CC2)c1-c1nn(C2CCC2)c2c1CN(c1ccc(-c3nc(C(F)(F)F)cn3C)cc1)CC2 [Compound 33, 1-cyclobutyl-3-(4-cyclopropyl-6-methoxypyrimidin-5-yl)-5-(4-(1-methyl-4-(trifluoromethyl)-1H-imidazol-2-yl)phenyl)-4,5,6,7-tetrahydro-1 H-pyrazolo[4,3-c]pyridine] | 90 | 50 to 100
9 | COc1ncnc(C2CC2)c1-c1nn(C)c2c1CN(c1cnc(-c3nc(C(F)(F)F)cn3C)cn1)CC2 [Compound 52, 3-(4-cyclopropyl-6-methoxypyrimidin-5-yl)-1-methyl-5-(5-(1-methyl-4-(trifluoromethyl)-1H-imidazol-2-yl)pyrazin-2-yl)-4,5,6,7-tetrahydro-1H-pyrazolo[4,3-c]pyridine] | 96 | 50 to 100
10 | COCCn1cc(C(F)(F)F)nc1-c1ccc(N2CCc3c(c(-c4c(OC)ncnc4C4CC4)nn3C)C2)cc1 [Compound 9, 3-(4-cyclopropyl-6-methoxypyrimidin-5-yl)-5-(4-(1-(2-methoxyethyl)-4-(trifluoromethyl)-1H-imidazol-2-yl)phenyl)-1-methyl-4,5,6,7-tetrahydro-1H-pyrazolo[4,3-c]pyridine] | 99 | < 50
11 | COc1ncnc(C2CC2)c1-c1nn(C(C)C)c2c1CN(c1ccc(-c3nc(C(F)(F)F)cn3C)cc1)CC2 [Compound 27, 3-(4-cyclopropyl-6-methoxypyrimidin-5-yl)-1-isopropyl-5-(4-(1-methyl-4-(trifluoromethyl)-1H-imidazol-2-yl)phenyl)-4,5,6,7-tetrahydro-1H-pyrazolo[4,3-c]pyridine] | 98 | < 50
12 | COc1ncnc(C2CC2)c1-c1nn(C2CCC2)c2c1CN(c1ccc(-c3nc(C(F)(F)F)cn3C)nc1)CC2 [Compound 34, 1-cyclobutyl-3-(4-cyclopropyl-6-methoxypyrimidin-5-yl)-5-(6-(1-methyl-4-(trifluoromethyl)-1H-imidazol-2-yl)pyridin-3-yl)-4,5,6,7-tetrahydro-1H-pyrazolo[4,3-c]pyridine] | 75 | > 100
13 | COc1ncnc(C2CC2)c1-c1nn(C)c2c1CN(c1ccc(-c3nc(C(F)(F)F)cn3C)nc1)CC2 [Compound 12, 3-(4-cyclopropyl-6-methoxypyrimidin-5-yl)-1-methyl-5-(6-(1-methyl-4-(trifluoromethyl)-1H-imidazol-2-yl)pyridin-3-yl)-4,5,6,7-tetrahydro-1H-pyrazolo[4,3-c]pyridine] | 98 | < 50
14 | COc1ncnc(C2CC2)c1-c1nn(Cc2ccccc2)c2c1CN(c1ccc(-c3nc(C(F)(F)F)cn3C)cc1)CC2 [Compound 36, 1-benzyl-3-(4-cyclopropyl-6-methoxypyrimidin-5-yl)-5-(4-(1-methyl-4-(trifluoromethyl)-1H-imidazol-2-yl)phenyl)-4,5,6,7-tetrahydro-1H-pyrazolo[4,3-c]pyridine] | 99 | < 50
15 | COc1ncnc(C2CC2)c1-c1nn(C2CC2)c2c1CN(c1ccc(-c3nc(C(F)(F)F)cn3C)cn1)CC2 [Compound 32, 1-cyclopropyl-3-(4-cyclopropyl-6-methoxypyrimidin-5-yl)-5-(5-(1-methyl-4-(trifluoromethyl)-1H-imidazol-2-yl)pyridin-2-yl)-4,5,6,7-tetrahydro-1H-pyrazolo[4,3-c]pyridine] | 89 | > 100
16 | CCOc1cc(C(F)(F)F)nn1-c1ccc(N2CCc3c(c(-c4c(OC)ncnc4C4CC4)nn3C)C2)cc1 [Compound 20, 3-(4-cyclopropyl-6-methoxypyrimidin-5-yl)-5-(4-(5-ethoxy-3-(trifluoromethyl)-1H-pyrazol-1-yl)phenyl)-1-methyl-4,5,6,7-tetrahydro-1H-pyrazolo[4,3-c]pyridine] | 99 | < 50
17 | CCc1cc(N2CCc3c(c(-c4c(OC)ncnc4C4CC4)nn3C)C2)ccc1-c1nc(C(F)(F)F)cn1C [Compound 57, 3-(4-cyclopropyl-6-methoxypyrimidin-5-yl)-5-(3-ethyl-4-(1-methyl-4-(trifluoromethyl)-1H-imidazol-2-yl)phenyl)-1-methyl-4,5,6,7-tetrahydro-1H-pyrazolo[4,3-c]pyridine] | 87 | > 100
18 | COc1ncnc(C2CC2)c1-c1nn(C)c2c1CN(c1ccc(-c3nn(C)c4c3CN(C)CC4)cc1)CC2 [Compound 53, 3-(4-cyclopropyl-6-methoxypyrimidin-5-yl)-5-(4-(1,5-dimethyl-4,5,6,7-tetrahydro-1H-pyrazolo[4,3-c]pyridin-3-yl)phenyl)-1-methyl-4,5,6,7-tetrahydro-1H-pyrazolo[4,3-c]pyridine] | 42 | > 100
19 | COc1nccc(C2CC2)c1-c1nn(C)c2c1CN(c1ccc(-c3nc(C(F)(F)F)cn3C)cc1)CC2 [Compound 60, 3-(4-cyclopropyl-2-methoxypyridin-3-yl)-1-methyl-5-(4-(1-methyl-4-(trifluoromethyl)-1H-imidazol-2-yl)phenyl)-4,5,6,7-tetrahydro-1H-pyrazolo[4,3-c]pyridine] | 92 | < 50
20 | CCn1nc(-c2c(OC)ncnc2C2CC2)c2c1CCN(c1ccc(-c3nc(C(F)(F)F)cn3C)cc1)C2 [Compound 24, 3-(4-cyclopropyl-6-methoxypyrimidin-5-yl)-1-ethyl-5-(4-(1-methyl-4-(trifluoromethyl)-1H-imidazol-2-yl)phenyl)-4,5,6,7-tetrahydro-1H-pyrazolo[4,3-c]pyridine] | 98 | < 50
21 | COc1ncnc(C2CC2)c1-c1nn(C)c2c1CN(c1ccc(-c3nc(C(F)(F)F)cn3C)cn1)CC2(C)C [Compound 43, 3-(4-cyclopropyl-6-methoxypyrimidin-5-yl)-1,7,7-trimethyl-5-(5-(1-methyl-4-(trifluoromethyl)-1H-imidazol-2-yl)pyridin-2-yl)-4,5,6,7-tetrahydro-1H-pyrazolo[4,3-c]pyridine] | 98 | 50 to 100
22 | COc1ncnc(C2CC2)c1-c1nn(C)c2c1CN(c1ccc(-c3nc(C(F)(F)F)cn3C)c(Cl)c1)CC2 [Compound 45, 5-(3-chloro-4-(1-methyl-4-(trifluoromethyl)-1H-imidazol-2-yl)phenyl)-3-(4-cyclopropyl-6-methoxypyrimidin-5-yl)-1-methyl-4,5,6,7-tetrahydro-1H-pyrazolo[4,3-c]pyridine] | 98 | < 50
23 | COc1ncnc(C2CC2)c1-c1nn(C)c2c1CN(c1ccc(-c3nc(C(F)(F)F)cn3C3CCC3)cc1)CC2 [Compound 8, 5-(4-(1-cyclobutyl-4-(trifluoromethyl)-1H-imidazol-2-yl)phenyl)-3-(4-cyclopropyl-6-methoxypyrimidin-5-yl)-1-methyl-4,5,6,7-tetrahydro-1H-pyrazolo[4,3-c]pyridine] | 100 | < 50
24 | COc1ncnc(C2CC2)c1-c1nn(C2CC2)c2c1CN(c1ccc(-c3nc(C(F)(F)F)cn3C)cc1)CC2 [Compound 30, 1-cyclopropyl-3-(4-cyclopropyl-6-methoxypyrimidin-5-yl)-5-(4-(1-methyl-4-(trifluoromethyl)-1H-imidazol-2-yl)phenyl)-4,5,6,7-tetrahydro-1H-pyrazolo[4,3-c]pyridine] | 98 | < 50
